Tested on: mouse lung fibroblasts
Assay: FasL-induced cell death of TGF-β1-stimulated mouse lung fibroblasts
Format: cell-based
Settings: wild-type cells, TGF-β1 stimulation; FasL 200 ng/ml
From the text: FIG. 2. CD148 deficiency in fibroblasts worsens pulmonary fibrosis in bleomycin-treated mice and increases fibroblast activation in response to TGF-β1. CD148 fibroblast-specific knockout mice (Ptprj^fl/fl Col1a2^Cre-ER(T)+/0 were developed as described in Methods. (A) Ptprj^fl/fl Col1a2^Cre-ER(T)+/0 mice or Col1a2^Cre-ER(T)+/0 (wild type) mice were exposed to BLM to induce lung fibrosis. At day 21, mouse lungs were harvested and stained with Masson's trichrome (n=3 for saline and n=5 for BLM groups). (B) Hydroxyproline content was measured in the left lung of Ptprj^fl/fl Col1a2^Cre-ER(T)+/0 mice (n=12) and Col1a2^Cre-ER(T)+/0 (WT) mice (n=12) exposed to BLM, and Ptprj^fl/fl Col1a2^Cre-ER(T)+/0 (n=6) and Col1a2^Cre-ER(T)+/0 (n=6) exposed to saline; at day 21. (C) Relative survival at day 0-21 after BLM. (D-E), α-SMA and CD148 expression in harvested lungs were measured by western blot (n=3-5 for each condition). (F-G) Gene expression of Fn and Col1a1, and Ctgf in harvested lungs was measured using qPCR (n=5 for each condition). […] (I) mRNA levels of Col1a1 and Fn were measured by qPCR (n=5 for each condition). […] Gel contractility was measured at 0, 12 and 24 h after TGF-β1 (10 ng/ml) stimulation (n=6 for each condition). […] At 24 h, cell viability was measured with MTT assay (n=5 for each condition). […]

Substance: TGF-β1
- FasL-induced cell death and apoptosis: induced resistance
